Numbered stars: 1 amine (or outer) side, 2 acyl side, 3 side chain; on linkers, the order of the positions; unused ones are H or OH. Bridge positions count the residues as written; N and C are the ends. Square brackets hold non-standard residues; d marks the D form. Peptide text beside a SMILES is read from it. X2 = NC(N)=NCC[C@@H]1C[C@@H](C(=O)[*:2])N([*:1])C1; X1 = NC(N)=NCC[C@H]1C[C@@H](C(=O)[*:2])N([*:1])C1
What was measured:
[1] = Effective concentration required for production of cGMP in Chinese hamster ovary cells expressing natriuretic peptide receptor A (NPR-A); assay type: functional, cell-based
[2] = Relative biological activity was measured as EC50 analogue/ EC50 miniANP; assay type: functional

SMILES | EC50 [1] | Ratio [2]
CC[C@H](C)[C@@H]1NC(=O)[C@H](CCCN=C(N)N)NC(=O)[C@H](CC(=O)O)NC(=O)[C@H](CCSC)NC(=O)[C@H](C)NC(=O)CNC(=O)CNC(=O)[C@H](Cc2ccccc2)NC(=O)[C@H](Cc2c[nH]cn2)NC(=O)[C@@H](NC(=O)[C@@H](N)CCSC)CSSC[C@@H](C(=O)N[C@@H](Cc2ccc(O)cc2)C(=O)N[C@@H](CCCN=C(N)N)C(N)=O)NC(=O)[C@H](CO)NC1=O | 137 nM | –
CC[C@H](C)[C@@H]1NC(=O)[C@H](CCCN=C(N)N)NC(=O)[C@H](CC(=O)O)NC(=O)[C@H](CCSC)NC(=O)[C@@H]2CCCN2C(=O)CNC(=O)CNC(=O)[C@H](Cc2ccccc2)NC(=O)[C@H](Cc2c[nH]cn2)NC(=O)[C@@H](NC(=O)[C@@H](N)CCSC)CSSC[C@@H](C(=O)N[C@@H](Cc2ccc(O)cc2)C(=O)N[C@@H](CCCN=C(N)N)C(N)=O)NC(=O)[C@H](CO)NC1=O | 58.1 nM | –
CC[C@H](C)[C@@H]1NC(=O)[C@@H](CCCN=C(N)N)NC(=O)[C@H](CC(=O)O)NC(=O)[C@@H](CCSC)NC(=O)[C@H](C)NC(=O)CNC(=O)CNC(=O)[C@@H](Cc2ccccc2)NC(=O)[C@H](Cc2c[nH]cn2)NC(=O)[C@@H](NC(=O)[C@@H](N)CCSC)CSSC[C@H](C(=O)N[C@@H](Cc2ccc(O)cc2)C(=O)N[C@@H](CCCN=C(N)N)C(N)=O)NC(=O)[C@@H](CO)NC1=O | – | 44.3
CC[C@H](C)[C@@H]1NC(=O)[C@H](CCCN=C(N)N)NC(=O)[C@H](CC(=O)O)NC(=O)[C@H](CCSC)NC(=O)[C@@H]2C[C@H](CCN=C(N)N)CN2C(=O)CNC(=O)CNC(=O)[C@H](Cc2ccccc2)NC(=O)[C@H](Cc2c[nH]cn2)NC(=O)[C@@H](NC(=O)[C@@H](N)CCSC)CSSC[C@@H](C(=O)N[C@@H](Cc2ccc(O)cc2)C(=O)N[C@@H](CCCN=C(N)N)C(N)=O)NC(=O)[C@H](CO)NC1=O (H-MCHFGG[X1]MDRISCYR-NH2; disulfide 2-13) | 4.6 nM | –
CC[C@H](C)[C@@H]1NC(=O)[C@H](CCCN=C(N)N)NC(=O)[C@H](CC(=O)O)NC(=O)[C@H](CCSC)NC(=O)[C@@H]2C[C@@H](CCN=C(N)N)CN2C(=O)CNC(=O)CNC(=O)[C@H](Cc2ccccc2)NC(=O)[C@H](Cc2c[nH]cn2)NC(=O)[C@@H](NC(=O)[C@@H](N)CCSC)CSSC[C@@H](C(=O)N[C@@H](Cc2ccc(O)cc2)C(=O)N[C@@H](CCCN=C(N)N)C(N)=O)NC(=O)[C@H](CO)NC1=O (H-MCHFGG[X2]MDRISCYR-NH2; disulfide 2-13) | 1.3 nM | –
CC[C@H](C)[C@@H]1NC(=O)[C@@H](CCCN=C(N)N)NC(=O)[C@H](CC(=O)O)NC(=O)[C@@H](CCSC)NC(=O)[C@@H]2CCCN2C(=O)CNC(=O)CNC(=O)[C@@H](Cc2ccccc2)NC(=O)[C@H](Cc2c[nH]cn2)NC(=O)[C@@H](NC(=O)[C@@H](N)CCSC)CSSC[C@H](C(=O)N[C@@H](Cc2ccc(O)cc2)C(=O)N[C@@H](CCCN=C(N)N)C(N)=O)NC(=O)[C@@H](CO)NC1=O | – | 18.7
CC[C@H](C)[C@@H]1NC(=O)[C@@H](CCCN=C(N)N)NC(=O)[C@H](CC(=O)O)NC(=O)[C@@H](CCSC)NC(=O)[C@H](CCCN=C(N)N)NC(=O)CNC(=O)CNC(=O)[C@@H](Cc2ccccc2)NC(=O)[C@H](Cc2c[nH]cn2)NC(=O)[C@@H](NC(=O)[C@@H](N)CCSC)CSSC[C@H](C(=O)N[C@@H](Cc2ccc(O)cc2)C(=O)N[C@@H](CCCN=C(N)N)C(N)=O)NC(=O)[C@@H](CO)NC1=O [MiniANP] | – | 1

Reference: ChEMBL document CHEMBL1148388, “Restriction of a peptide turn conformation and conformational analysis of guanidino group using arginine-proline fused amino acids: application to mini atrial natriuretic peptide on binding to the receptor” (J Med Chem, 2004)
